Where two headings read alike, the source gives them in different places. A value given as a limit tells only on which side of the number the result lay.

The values below come from patent US20080269213A1, “8-Hydroxyquinoline compounds and methods thereof” (Wyeth, priority 2006, published 2008).

In one test the target is T1, Agg-1 (Homo sapiens, UniProt O75173).
T1 sequence (O75173 213-837): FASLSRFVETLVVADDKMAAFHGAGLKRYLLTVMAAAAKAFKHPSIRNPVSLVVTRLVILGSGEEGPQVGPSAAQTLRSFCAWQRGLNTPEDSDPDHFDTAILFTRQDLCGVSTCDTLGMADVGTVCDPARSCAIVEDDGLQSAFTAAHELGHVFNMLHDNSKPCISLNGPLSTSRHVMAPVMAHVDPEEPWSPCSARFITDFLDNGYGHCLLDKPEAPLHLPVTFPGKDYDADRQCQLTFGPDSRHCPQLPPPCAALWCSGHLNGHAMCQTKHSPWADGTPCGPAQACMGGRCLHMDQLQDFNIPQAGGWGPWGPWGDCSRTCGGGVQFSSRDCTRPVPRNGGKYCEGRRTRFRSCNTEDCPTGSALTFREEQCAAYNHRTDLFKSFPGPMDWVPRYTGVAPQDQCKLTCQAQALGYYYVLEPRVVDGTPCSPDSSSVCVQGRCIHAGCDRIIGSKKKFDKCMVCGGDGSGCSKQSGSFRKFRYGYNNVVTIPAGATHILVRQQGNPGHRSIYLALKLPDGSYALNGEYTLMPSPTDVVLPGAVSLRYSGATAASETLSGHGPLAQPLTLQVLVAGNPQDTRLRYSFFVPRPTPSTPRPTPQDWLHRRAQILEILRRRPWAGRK
The test can be described thus: Agg-1 FRET assay. Format: biochemical. The settings on record: for inhibition at 22 µM: @ 22000 nM; for inhibition at 22.2 µM: @ 22200 nM; for IC50: read-out: Agg1 IC50. The text has this:
The Agg-1/Agg-2 FRET data for N-[(8-hydroxyquinolin-2-yl)(phenyl)methyl]-2-phenoxyacetamide and 2-{[(phenoxyacetyl)amino](phenyl)methyl}quinolin-8-yl phenoxyacetate is presented in Table 1.

The target of test [1] is T2, recombinant human Aggrecanase-2 Agg2-Phe628 (Homo sapiens, UniProt Q9UNA0).
T2 sequence (Q9UNA0 262-628 limits assumed): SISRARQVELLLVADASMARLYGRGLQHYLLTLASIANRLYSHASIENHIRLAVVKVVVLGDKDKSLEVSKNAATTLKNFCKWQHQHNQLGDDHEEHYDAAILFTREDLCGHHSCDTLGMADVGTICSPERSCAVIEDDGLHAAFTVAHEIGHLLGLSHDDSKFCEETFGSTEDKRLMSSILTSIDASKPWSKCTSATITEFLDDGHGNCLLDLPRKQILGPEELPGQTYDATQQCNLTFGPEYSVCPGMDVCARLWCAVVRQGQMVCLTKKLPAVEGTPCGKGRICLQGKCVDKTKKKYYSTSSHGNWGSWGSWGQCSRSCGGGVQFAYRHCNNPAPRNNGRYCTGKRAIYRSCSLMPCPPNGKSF
In words: Aggrecanase 2 in vitro enzyme assay (Agg-2 FRET, quenched fluorescent peptide substrate). Format: biochemical. The settings on record: for Agg-2 FRET Median PCT INHIB: concentration not given. More on the design: purified recombinant human Aggrecanase-2 Agg2-Phe628 (MW=41,737); This is a truncated form of full-length human aggrecanase-2; made in house; host or cells: CHO cells. How it is done: A continuous assay was used in which the substrate was a synthetic peptide containing a fluorescent group (o-aminobenzyl, Abz), which was quenched by energy transfer to a 2,4-dinitrophenyl group (Dnp). The buffer used in this assay was 50 mM HEPES, pH 7.5, 100 mM NaCl, 5 mM CaCl2, 0.1% CHAPS, 5% glycerol. The source of enzyme was purified recombinant human Aggrecanase-2 Agg2-Phe628 (MW=41,737). This is a truncated form of full-length human aggrecanase-2 that was expressed in CHO cells and purified. The final concentration of Agg2-Phe628 was 0.5 μg/ml. […] It is a synthetic peptide that is designed after a portion of brevican, one of the naturally occurring substrates of Aggrecanase-2, of the sequence Abz-[…]-Dap(Dnp)-KK—NH2 (mass=1740). The concentration of this substrate stock was spectrophotometrically determined using the extinction coefficient at 354 nm of 18,172 M^−1cm^−1. […] The final concentration of substrate in the assay was 25 μM.
Test compounds (in duplicate) were serially diluted from 2 mM to 0.01 μM in 100% DMSO. The total reaction volume was 100 μl. The buffer and enzyme were added first followed by addition of 10× inhibitor from the dilution plate. Enzyme and buffer alone samples were included in order to obtain the maximal rate of substrate cleavage. […] Then substrate was added, mixed and the reaction monitored for 40 min at 30° C. in kinetic mode using λex: 340 nm and % λem: 420 (GeminiXS Molecular Devices).

Setting [2] is: read-out: Agg-2 FRET Median IC50.

`O=C(COc1ccccc1)NC(c1cccc(Oc2ccc(Cl)cc2)c1)c1cc(Cl)c2cccnc2c1O` (centres unmarked) [Example 129, N-{(5-chloro-8-hydroxyquinolin-7-yl)[3-(4-chlorophenoxy)phenyl]methyl}-2-phenoxyacetamide]: the inhibition at 22 µM at Agg-1 (read-out: Agg1 %) came out at 51%. Further, the inhibition at 11 µM in test [1] (@ 11000 nM) is 52%.

For `CCC/C=C/C(NC(=O)COc1ccccc1)c1cc(Cl)c2cccnc2c1O` (centres unmarked) [N-[(2E)-1-(5-chloro-8-hydroxyquinolin-7-yl)hex-2-en-1-yl]-2-phenoxyacetamide], on Agg-1 (@ 800 nM, read-out: Agg1 %), the inhibition at 0.8 µM was 30%. Further, the inhibition at […] in test [1] (@ 2500 nM) is 47%.

Consider `O=C(COc1ccccc1)NC(c1cccc(OCc2ccccc2)c1)c1cc(Cl)c2cccnc2c1O` (centres unmarked) [N-[[3-(benzyloxy)phenyl](5-chloro-8-hydroxyquinolin-7-yl)methyl]-2-phenoxyacetamide], for which the inhibition at 22.2 µM at Agg-1 (read-out: Agg1 %) was 47%. For the same molecule, in test [1] (@ 3700 nM), the inhibition at 3.7 µM worked out at 48%.

As to `CCCCC#Cc1ccc(C(NC(=O)COc2ccccc2)c2cc(Cl)c3cccnc3c2O)cc1` (centres unmarked) [N-[(5-chloro-8-hydroxyquinolin-7-yl)(4-hex-1-yn-1-ylphenyl)methyl]-2-phenoxyacetamide], the inhibition at 50 µM at Agg-1 (@ 50000 nM, read-out: Agg1 %) came out at 47%. Also, the inhibition at 33.3 µM in test [1] (@ 33300 nM) came out at 48%.

As usually defined, the IC50 is the concentration that gives 50% inhibition. In the case of `COc1cccc(C(NC(=O)COc2ccccc2)c2cc(Cl)c3cccnc3c2O)c1` (centres unmarked) [Example 126, N-[(5-chloro-8-hydroxyquinolin-7-yl)(3-methoxyphenyl)methyl]-2-phenoxyacetamide], on Agg-1 (read-out: Agg1 %), the inhibition at 22 µM turned out to be 44%. In addition, in test [1] (read-out: Agg2 IC50), the IC50 was 1.8 µM.

For the molecule `O=C(COc1ccccc1)NC(Cc1cc(Cl)c2cccnc2c1O)c1cccc(CN2CCCC2)c1` (centres unmarked), the inhibition at 200 µM on Agg-1 (read-out: Agg-1 IC50 (μM) or % Inhibition) was found to be 56%. The IC50 in test [1] (IC50, read-out: Agg-2 IC50 (μM) or % Inhibition) was determined as 20 µM.

For `CN(C)c1cc(C(NC(=O)COc2ccccc2)c2ccccc2)c(O)c2ncccc12` (centres unmarked) [N-[[5-(dimethylamino)-8-hydroxyquinolin-7-yl](phenyl)methyl]-2-phenoxyacetamide], the results for the IC50 (at Agg-1; in test [1] (read-out: Agg2 IC50)) were around 25000 nM and 33.3 to 100 µM, respectively. The “Agg-2 FRET Median PCT INHIB” value in test [1] was determined as 58%.

As to `O=C(CNCc1cccc2ccccc12)NC(c1ccccc1)c1cc(Cl)c2cccnc2c1O` (centres unmarked) [Example 224, N-[(5-chloro-8-hydroxyquinolin-7-yl)(phenyl)methyl]-N2-(1-naphthylmethyl)glycinamide], the figures for the IC50 (on Agg-1; in test [1] (read-out: Agg2 IC50); in test [1] (setting [2])) were 17500 nM, 1.56 µM and 1.56 µM, respectively.

Consider `O=C(COc1ccc(-c2ccccc2)cc1)NC(c1ccccc1)c1cc(Cl)c2cccnc2c1O` (centres unmarked) [2-(biphenyl-4-yloxy)-N-[(5-chloro-8-hydroxyquinolin-7-yl)(phenyl)methyl]acetamide], for which the IC50 at Agg-1 was 7400 to 20000 nM; in test [1] (read-out: Agg2 IC50), 2 µM.

As for `O=C(CNCc1cccc2ccccc12)NC(c1ccccc1Cl)c1cc(Cl)c2cccnc2c1O` (centres unmarked) [Example 231, N-[(5-chloro-8-hydroxyquinolin-7-yl)(2-chlorophenyl)methyl]-N2-(1-naphthylmethyl)glycinamide], the IC50 on Agg-1 is around 20000 nM; in test [1] (read-out: Agg2 IC50), 1.37 µM.

As for `O=C(COc1ccccc1)NC(c1ccc([N+](=O)[O-])cc1)c1cc(Cl)c2cccnc2c1O` (centres unmarked) [N-[(5-chloro-8-hydroxyquinolin-7-yl)(4-nitrophenyl)methyl]-2-phenoxyacetamide], the half-inhibitory concentration (IC50) on Agg-1 is above 20000 nM.

Turning to `O=C(COc1ccccc1)NC(c1ccccc1)c1cc([N+](=O)[O-])c2cccnc2c1O` (centres unmarked) [N-[(8-hydroxy-5-nitroquinolin-7-yl)(phenyl)methyl]-2-phenoxyacetamide], the IC50 on Agg-1 came out at 19300 nM.

In the case of `O=C(COc1ccccc1)NC(c1ccccc1Cl)c1cc([N+](=O)[O-])c2cccnc2c1O` (centres unmarked) [N-[(2-chlorophenyl)(8-hydroxy-5-nitroquinolin-7-yl)methyl]-2-phenoxyacetamide], the IC50 on Agg-1 is 11400 nM.

Regarding `O=C(COc1ccccc1)NC(c1cc([N+](=O)[O-])ccc1Cl)c1cc(Cl)c2cccnc2c1O` (centres unmarked) [N-[(5-chloro-8-hydroxyquinolin-7-yl)(2-chloro-5-nitrophenyl)methyl]-2-phenoxyacetamide], the IC50 in test [1] (setting [2]) amounted to 0.523 µM.

On to `O=C(COc1ccccc1)NC(c1cccc(F)c1)c1cc(Cl)c2cccnc2c1O` (centres unmarked) [N-[(5-chloro-8-hydroxyquinolin-7-yl)(3-fluorophenyl)methyl]-2-phenoxyacetamide], for which the IC50 in test [1] (setting [2]) worked out at 0.624 µM.

As for `O=C(COc1ccccc1)NC(c1ccccc1F)c1cc(Cl)c2cccnc2c1O` (centres unmarked) [N-[(5-chloro-8-hydroxyquinolin-7-yl)(2-fluorophenyl)methyl]-2-phenoxyacetamide], the inhibition at 22.2 µM at Agg-1 (read-out: Agg1 %) is 46%.

Turning to `CN(CC(=O)NC(c1cccc(F)c1)c1cc(Cl)c2cccnc2c1O)Cc1ccccc1` (centres unmarked) [Example 55, N^2-benzyl-N^1-[(5-chloro-8-hydroxyquinolin-7-yl)(3-fluorophenyl)methyl]-N^2-methylglycinamide], the IC50 in test [1] (setting [2]) turned out to be 1.44 µM.

For the molecule `O=C(COc1ccccc1)NC(c1cccnc1)c1cc(Cl)c2cccnc2c1O` (centres unmarked) [Example 69, N-[(5-chloro-8-hydroxyquinolin-7-yl)(pyridin-3-yl)methyl]-2-phenoxyacetamide], the IC50 in test [1] (setting [2]) is 1.92 µM.

As to `C=CCOc1ccc(C(NC(=O)COc2ccccc2)c2cc(Cl)c3cccnc3c2O)cc1` (centres unmarked) [N-[[4-(allyloxy)phenyl](5-chloro-8-hydroxyquinolin-7-yl)methyl]-2-phenoxyacetamide], the inhibition at 22 µM at Agg-1 (read-out: Agg1 %) was 52%.

For the molecule `O=C(COc1ccccc1)NC(c1ccccc1)c1cc(Cl)c2cccnc2c1O` (centres unmarked) [N-[(5-chloro-8-hydroxyquinolin-7-yl)(phenyl)methyl]-2-phenoxyacetamide], the IC50 at Agg-1 is above 22000 nM.

Regarding `Cc1ccc(C(NC(=O)COc2ccccc2)c2cc(Cl)c3cccnc3c2O)c(C)c1` (centres unmarked) [N-[(5-chloro-8-hydroxyquinolin-7-yl)(2,4-dimethylphenyl)methyl]-2-phenoxyacetamide], the “Agg-2 FRET Median PCT INHIB” value in test [1] came out at 60%.

As to “N-[(5-chloro-8-hydroxyquinolin-7-yl)(4-methoxyphenyl)methyl]-2-(4-methylphenoxy)acetamide [Example 80]”, in test [1] (setting [2]), the IC50 was 0.774 µM.

For the molecule `O=C(CCCc1ccccc1)NC(c1ccccc1Cl)c1cc(Cl)c2cccnc2c1O` (centres unmarked) [N-[(5-chloro-8-hydroxyquinolin-7-yl)(2-chlorophenyl)methyl]-4-phenylbutanamide], in test [1], the “Agg-2 FRET Median PCT INHIB” value is on record as 48%.

As for `O=C(COc1ccc(Cl)cc1)NC(c1ccccc1)c1cc(Cl)c2cccnc2c1O` (centres unmarked) [N-[(5-chloro-8-hydroxyquinolin-7-yl)(phenyl)methyl]-2-(4-chlorophenoxy)acetamide], in test [1] (setting [2]), the IC50 amounted to 1.02 µM.

With `Cc1ccc(C(NC(=O)COc2ccccc2)c2ccc3cccnc3c2O)cc1` (centres unmarked) [N-[(8-hydroxyquinolin-7-yl)(4-methylphenyl)methyl]-2-phenoxyacetamide], in test [1] (setting [2]), the IC50 was 3.01 µM.

In the case of `O=C(CNc1cccnc1)NC(c1cccc([N+](=O)[O-])c1)c1cc(Cl)c2cccnc2c1O` (centres unmarked) [Example 28, N^1-[(5-chloro-8-hydroxyquinolin-7-yl)(3-nitrophenyl)methyl]-N^2-pyridin-3-ylglycinamide], the IC50 in test [1] (setting [2]) is 1.56 µM.
